Assay results as given in ChEMBL document CHEMBL4808180, “Identification of 2,2-Dimethylbutanoic Acid (HST5040), a Clinical Development Candidate for the Treatment of Propionic Acidemia and Methylmalonic Acidemia” (J Med Chem, 2021).
Active and inactive are the calls of the source. No cut-off for these calls is given here.

Columns and labels:
[1] = Drug metabolism in Gottingen minipig plasma assessed as HST5040-glycine metabolite formation at 10 mg/kg administered as single dose by LC/MS analysis; format: ADME, organism-based, Sus scrofa domesticus; details: pig, in vivo
[2] = Half life in CD1 mouse at 300 mg/kg, po; format: ADME, organism-based; details: in vivo
[3] = Oral bioavailability in Sprague-Dawley rat at 200 mg/kg; format: ADME, organism-based; details: in vivo
[4] = Half life in Sprague-Dawley rat at 10 mg/kg, po; format: ADME, organism-based; details: in vivo
[5] = Reduction of propionyl carnitine in human hepatocytes derived from propionic acidemia patient pretreated for 30 mins followed by 13C-isoleucine addition and measured after 1 hr by MS/MS analysis; format: functional, cell-based; details: hepatocyte
[6] = Drug metabolism in human hepatocytes derived from methylmalonic acidemia patient assessed as formation of 2,2-dimethylbutanoic acid-CoA pretreated for 30 mins followed by 13C-isoleucine addition and measured after 1 hr by MS/MS analysis relative to control; format: ADME, cell-based; details: Hepatocyte
[7] = target: Solute carrier family 22 member 1 (Homo sapiens) (UniProt O15245); test: Inhibition of human OCT1 assessed as reduction in OCT1-mediated metformin transport at 14900 uM relative to control
[8] = Cmax in Gottingen minipig at 10 mg/kg, po using radiolabeled compound by quantitative whole-body autoradiography; format: ADME, organism-based, Sus scrofa domesticus; design: route oral, dose 10 mg/kg; details: pig, in vivo
[9] = Drug metabolism in minipig hepatocytes assessed as beta-oxidation by measuring phase1 metabolite formation at 50 uM measured after 4 hrs; format: ADME, cell-based, Sus scrofa domesticus, Hepatocyte; details: pig
[10] = Oral bioavailability in Sprague-Dawley rat at 10 mg/kg; format: ADME, organism-based; details: in vivo
[11] = Half life in CD1 mouse at 100 mg/kg, po; format: ADME, organism-based; details: in vivo
[12] = Ratio of drug level in erythrocyte to plasma in Sprague-Dawley rat; format: ADME; details: erythrocytes and plasma
[13] = Drug metabolism in Gottingen minipig plasma assessed as HST5040-glucuronide metabolite formation at 10 mg/kg administered as single dose by LC/MS analysis; format: ADME, organism-based, Sus scrofa domesticus; details: pig, in vivo
[14] = Oral bioavailability in Sprague-Dawley rat at 50 mg/kg; format: ADME, organism-based; details: in vivo
[15] = Half life in Sprague-Dawley rat at 50 mg/kg, po; format: ADME, organism-based; details: in vivo
[16] = Tmax in Gottingen minipig at 10 mg/kg, po using radiolabeled compound by quantitative whole-body autoradiography; format: ADME, organism-based, Sus scrofa domesticus; details: pig, in vivo
[17] = Drug metabolism in Sprague-Dawley rat assessed as beta-oxidation by measuring phase1 metabolite formation at 10 mg/kg administered single dose using radiolabeled compound; format: ADME, organism-based; details: in vivo
OAT3 = target: T1, OAT3 (Homo sapiens, UniProt Q8TCC7); test: Inhibition of human OAT3 assessed as reduction in OAT3-mediated tenofovir transport at 14900 uM relative to control; details: not told, probe tenofovir
T1 sequence (Q8TCC7 whole entry): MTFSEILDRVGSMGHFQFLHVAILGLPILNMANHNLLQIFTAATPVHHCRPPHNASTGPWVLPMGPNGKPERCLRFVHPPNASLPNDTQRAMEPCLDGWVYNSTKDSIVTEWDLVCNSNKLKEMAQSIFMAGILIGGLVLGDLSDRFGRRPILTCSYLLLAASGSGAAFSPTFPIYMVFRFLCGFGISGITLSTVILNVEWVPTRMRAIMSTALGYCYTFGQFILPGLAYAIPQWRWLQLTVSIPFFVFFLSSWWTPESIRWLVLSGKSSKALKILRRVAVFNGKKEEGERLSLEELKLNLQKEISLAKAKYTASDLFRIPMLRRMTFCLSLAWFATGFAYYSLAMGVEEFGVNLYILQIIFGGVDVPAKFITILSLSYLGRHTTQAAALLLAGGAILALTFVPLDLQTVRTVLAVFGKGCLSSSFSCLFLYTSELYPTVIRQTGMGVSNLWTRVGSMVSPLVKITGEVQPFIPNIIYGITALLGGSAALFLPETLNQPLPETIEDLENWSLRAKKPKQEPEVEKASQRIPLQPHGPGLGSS

[18] = Tmax in CD1 mouse at 100 mg/kg, po; format: ADME, organism-based; details: in vivo
[19] = target: T2, Broad substrate specificity ATP-binding cassette transporter ABCG2 (Homo sapiens, UniProt Q9UNQ0); test: Inhibition of human BCRP assessed as reduction in E3S transport at 24000 uM relative to control
T2 sequence (Q9UNQ0 whole entry): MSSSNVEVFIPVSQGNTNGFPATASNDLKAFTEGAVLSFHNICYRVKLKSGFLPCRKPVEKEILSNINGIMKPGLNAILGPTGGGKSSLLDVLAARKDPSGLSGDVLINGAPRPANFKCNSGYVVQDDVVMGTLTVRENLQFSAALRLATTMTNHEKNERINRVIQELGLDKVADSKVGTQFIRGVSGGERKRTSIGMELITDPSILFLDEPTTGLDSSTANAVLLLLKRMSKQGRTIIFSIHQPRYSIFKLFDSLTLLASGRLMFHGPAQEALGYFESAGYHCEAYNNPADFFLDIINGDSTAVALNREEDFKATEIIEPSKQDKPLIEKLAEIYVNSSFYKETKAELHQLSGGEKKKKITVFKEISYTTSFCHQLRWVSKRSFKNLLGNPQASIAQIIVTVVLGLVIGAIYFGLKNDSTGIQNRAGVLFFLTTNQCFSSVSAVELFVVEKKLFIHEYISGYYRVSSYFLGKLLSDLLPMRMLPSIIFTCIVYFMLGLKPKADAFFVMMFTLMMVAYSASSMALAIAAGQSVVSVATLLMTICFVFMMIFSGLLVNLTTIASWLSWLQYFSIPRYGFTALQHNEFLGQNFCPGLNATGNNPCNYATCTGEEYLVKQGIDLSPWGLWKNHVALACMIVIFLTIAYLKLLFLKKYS

[20] = Oral bioavailability in CD1 mouse at 30 mg/kg; format: ADME, organism-based; details: in vivo
[21] = Induction of toxicity in minipig assessed as increase in vacuole size in the epithelial cells of renal tubules at >=50 mg/kg; format: organism-based, Sus scrofa domesticus; details: pig, in vivo
[22] = Reduction of propionyl carnitine in human hepatocytes derived from propionic acidemia patient at 30 uM pretreated for 30 mins followed by 13C-isoleucine addition and measured after 1 hr by MS/MS analysis relative to control; format: functional, Hepatocyte; design: scale not given: the % may be the effect or the level left; details: time 90 min, 1.5 h
[23] = Drug metabolism in mini-pig hepatocytes assessed as formation of 2,2-dimethylbutanoic acid-CoA incubated for 1 hrs by MS/MS analysis; format: ADME, cell-based, Sus scrofa domesticus; details: Sus scrofa, Hepatocyte
[24] = Reduction of CoASH in human hepatocytes derived from propionic acidemia patient pretreated for 30 mins followed by 13C-isoleucine addition and measured after 1 hr by MS/MS analysis; format: functional, cell-based; details: hepatocyte
Cytochrome P450 3A4 = Cytochrome P450 3A4 (Homo sapiens, UniProt P08684); test: Time-dependent inhibition of CYP3A4 in human liver microsomes using midazolam as substrate preincubated for 30 mins; format: ADME
[25] = Reduction of methylmalonyl-CoA in human hepatocytes derived from methylmalonic acidemia at 30 uM pretreated for 30 mins followed by 13C-isoleucine addition and measured after 1 hr by MS/MS analysis relative to control; format: functional, Hepatocyte; design: scale not given: the % may be the effect or the level left; details: time 90 min, 1.5 h
[26] = Reduction of CoASH in human hepatocytes derived from propionic acidemia patient at 30 uM pretreated for 30 mins followed by 13C-isoleucine addition and measured after 1 hr by MS/MS analysis relative to control; format: functional, Hepatocyte; design: scale not given: the % may be the effect or the level left; details: time 90 min, 1.5 h
[27] = Tmax in CD1 mouse at 30 mg/kg, po; format: ADME, organism-based; details: in vivo

Solute carrier family 22 member 1 (Homo sapiens), sequence (O15245 whole entry, looked up): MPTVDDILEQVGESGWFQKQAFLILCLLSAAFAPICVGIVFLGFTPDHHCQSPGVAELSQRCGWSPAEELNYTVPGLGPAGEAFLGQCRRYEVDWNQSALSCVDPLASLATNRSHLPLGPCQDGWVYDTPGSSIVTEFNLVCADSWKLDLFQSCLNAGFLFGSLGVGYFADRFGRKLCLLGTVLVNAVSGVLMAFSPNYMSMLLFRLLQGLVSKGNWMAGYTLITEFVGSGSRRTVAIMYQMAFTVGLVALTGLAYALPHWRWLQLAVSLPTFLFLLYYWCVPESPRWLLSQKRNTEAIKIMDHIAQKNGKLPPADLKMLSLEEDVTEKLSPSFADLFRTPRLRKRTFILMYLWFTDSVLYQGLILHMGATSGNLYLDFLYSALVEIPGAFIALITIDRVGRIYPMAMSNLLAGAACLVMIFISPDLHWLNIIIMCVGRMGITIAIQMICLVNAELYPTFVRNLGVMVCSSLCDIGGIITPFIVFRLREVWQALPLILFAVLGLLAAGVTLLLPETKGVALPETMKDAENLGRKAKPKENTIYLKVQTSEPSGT
Cytochrome P450 3A4, sequence (P08684 whole entry): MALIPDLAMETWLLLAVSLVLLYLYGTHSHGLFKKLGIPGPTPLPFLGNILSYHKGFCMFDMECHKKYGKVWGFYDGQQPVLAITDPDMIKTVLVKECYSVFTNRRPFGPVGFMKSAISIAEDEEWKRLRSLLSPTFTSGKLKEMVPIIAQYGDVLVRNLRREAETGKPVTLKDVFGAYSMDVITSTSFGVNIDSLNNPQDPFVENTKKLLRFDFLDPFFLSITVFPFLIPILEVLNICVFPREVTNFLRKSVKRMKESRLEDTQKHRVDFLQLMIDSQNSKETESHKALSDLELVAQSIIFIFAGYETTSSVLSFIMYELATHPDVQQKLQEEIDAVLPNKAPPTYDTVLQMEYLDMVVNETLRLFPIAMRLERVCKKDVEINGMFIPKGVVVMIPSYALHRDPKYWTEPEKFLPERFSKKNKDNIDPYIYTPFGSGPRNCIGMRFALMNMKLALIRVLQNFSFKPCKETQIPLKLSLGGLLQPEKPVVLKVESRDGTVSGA

CCC(C)(C)C(=O)O [DIMEBUTIC ACID]
Drug metabolism [1]: Metabolite_Detected | half-life [2]: 1.91 h | bioavailability [3]: 126% | half-life [4]: 3.17 h | EC50 [5]: 2.6 µM | EC50 [6]: 3.5 µM | inhibition [7]: inactive | Cmax [8]: 16100 ng/mL | Drug metabolism [9]: Metabolite_Notdetected | bioavailability [10]: 57.1% | half-life [11]: 1.09 h | Kp [12]: 0.649 | Drug metabolism [13]: Metabolite_Detected | bioavailability [14]: 68.3% | half-life [15]: 3.27 h | Tmax [16]: 0.5 h | Drug metabolism [17]: Metabolite_Notdetected | inhibition at 14900 µM (OAT3): 90.9% | Tmax [18]: 0.5 h | inhibition (INH) [19]: Not Active | bioavailability [20]: 53.4% | Activity [21]: Toxic | Activity [22]: -69.4% | EC50 [23]: 8.3 µM | EC50 [24]: 11.6 µM | IC50 (Cytochrome P450 3A4): > 10000 µM | Activity [25]: -55% | Activity [26]: -31.3% | Tmax [27]: 0.438 h
